Data taken from US9261498B2, “Biomarker for sensitivity to mTOR inhibitor therapy in kidney cancer” (The Regents of the University of California, priority 2005, dated 2016).

Tested on: VEGF
Test: VEGF ELISA of conditioned media
Format: cell-based, human
Details: VHL knockdown cells, 10 nM CCI-779, 36 hours, normalized to total cellular protein
Protocol: FIGS. 2A-2C. Effects of VHL knockdown on angiogenesis. (a) Microvessel density was quantified by CD-31 immunolabeling (arrows) in the xenograft tumors, and difference between CCI-779 treated (+) and vehicle (−) treated mice quantified (n=6 in each group). P<0.0033 for microvessel density counts in VHL shRNA compared to vector only (see blue bars). (b) Similar number of cells were plated and maintained in 10% serum rich media, in the presence (+) or absence (−) of 10 nM CCI-779. Thirty-six hours later, conditioned media was analyzed by anti-VEGF ELISA and cell extracts prepared for protein quantification. VEGF values were normalized to total cellular protein. Error bars equal one standard deviation (n=3). […] Bound antibody was detected using enhanced chemiluminescence (ECL, Amersham). For VEGF ELISA quantification, cells were plated in 6 well plates (1×10^5 per well). […] Thirty-six hours later, VEGF ELISA (R&D Systems) was performed according to the manufacturer's instructions, using a Fisher Plate reader. […] Bound antibody was detected using enhanced chemiluminescence (ECL, Amersham). For VEGF ELISA quantification, cells were plated in 6 well plates (1×10^5 per well). […] Thirty-six hours later, VEGF ELISA (R&D Systems) was performed according to the manufacturer's instructions, using a Fisher Plate reader. […]

## CO[C@H]1C[C@@H]2CC[C@@H](C)[C@@](O)(O2)C(=O)C(=O)N2CCCC[C@H]2C(=O)O[C@H]([C@H](C)C[C@@H]2CC[C@@H](OC(=O)C(C)(CO)CO)[C@H](OC)C2)CC(=O)[C@H](C)/C=C(\C)[C@@H](O)[C@@H](OC)C(=O)[C@H](C)C[C@H](C)/C=C/C=C/C=C/1C [CCI-779]
  reduction of secreted VEGF levels: 2 fold
